From PubChem BioAssay AID1996
≈ marks a conversion by molar mass, not a printed value.

Conditions: buffer; pH 7.4; 200.0 µM

| solubility kinetic | Compound |
| --- | --- |
| > 45.8 µg/mL | CCOC(=O)Cn1nc2sc3ccccc3n2c(=O)c1=O |
| 35 µg/mL (≈ 111 µM) | COc1ccccc1/C=C1\SC(N2CCC(C)CC2)=NC1=O |
| > 44.5 µg/mL | CC(C)(C)c1csc(CS(=O)(=O)c2ccccn2)n1 |
| 0.7 µg/mL (≈ 1.71 µM) | Cn1c(N)c(C(=O)COC(=O)Cc2ccc(Br)cc2)c(=O)n(C)c1=O |
| 24.6 µg/mL (≈ 55.1 µM) | Cc1ccc(NC(=O)COC(=O)CCc2ccccc2)cc1S(=O)(=O)N1CCOCC1 |
| > 43.7 µg/mL | COC(=O)c1ccsc1-n1cc(C#N)c(=O)n(C)c1=O |
| 10.1 µg/mL (≈ 28.4 µM) | O=C1COc2ccc(C(=O)COC(=O)CCOc3ccccc3)cc2N1 |
| 34.2 µg/mL (≈ 114 µM) | COc1ccccc1NC(=O)Nc1cccc(NC(C)=O)c1 |
| > 49.1 µg/mL | O=C(CS(=O)(=O)c1ccccc1)Nc1ncc([N+](=O)[O-])s1 |
| 16.6 µg/mL (≈ 81.7 µM) | CC(=O)c1csc(-c2ccccc2)n1 |
| 3.4 µg/mL (≈ 10.1 µM) | O=C1N=C(N2CCc3ccccc3C2)S/C1=C\c1ccc(O)cc1 |
| > 38.6 µg/mL | COc1cccc(NC(=O)COc2ccccc2)c1 |
| 3.3 µg/mL (≈ 6.59 µM) | CSCC[C@H](NC(=O)C1CCN(S(=O)(=O)c2ccc(C)cc2C)CC1)c1nc2ccccc2[nH]1 |
| 41.3 µg/mL (≈ 129 µM) | CCN(Cc1cc(=O)[nH]c2ccccc12)C(=O)c1ccc(C)cc1 |
| 32.7 µg/mL (≈ 133 µM) | O=C(COc1ccccc1)Nc1ccccc1F |
| 8.3 µg/mL (≈ 22.2 µM) | Cc1ccc(CNC(=O)N2CCN(S(=O)(=O)c3ccccc3)CC2)cc1 |
| 31 µg/mL (≈ 123 µM) | Cn1cc(S(=O)(=O)c2ccccc2)n(C)c1=O |
| 38.2 µg/mL (≈ 148 µM) | O=C(c1ccccc1)N1CCN(C(=O)C2CC2)CC1 |
| > 36.3 µg/mL | CCn1cc(C2CC(=O)NC2=O)c2ccccc21 (configuration not stated) |
| 1.6 µg/mL (≈ 4.67 µM) | Cc1c(C=O)c2ccccn2c1C(=O)c1ccc(Cl)c([N+](=O)[O-])c1 |
| > 49.4 µg/mL | Cc1ccc(NC(=O)C(C)OC(=O)CSc2ccccc2)cc1 (configuration not stated) |
| 2.6 µg/mL (≈ 8.46 µM) | O=C(/C=C/c1ccccc1)OCN1C(=O)c2ccccc2C1=O |
| < 0.4 µg/mL | O=C(NCC(c1cccs1)N1CCc2ccccc21)c1ccccc1 (configuration not stated) |

| solubility kinetic | Compound |
| --- | --- |
| 25.9 µg/mL (≈ 103 µM) | Cc1ccc(C(=O)Nc2cccc3ccccc23)o1 |
| 61.2 µg/mL (≈ 147 µM) | COc1ccc(CCNC(=O)C2CCC(=O)N2S(=O)(=O)c2ccc(C)cc2)cc1 (configuration not stated) |
| 14.2 µg/mL (≈ 39.1 µM) | Cc1cc(NC(=O)c2cc(S(=O)(=O)N3CCCCC3)ccc2C)no1 |
| 1.8 µg/mL (≈ 6.05 µM) | CC(C)(C)c1ccccc1OCC(=O)NCc1ccccc1 |
| < 0.7 µg/mL | Cc1ccccc1NC(=O)COc1ccc2c(c1)OC(C)(C)CC2=O |
| > 44.5 µg/mL | OCc1nc2ccccc2n1CCCCOc1ccccc1 |
| > 46.8 µg/mL | Cn1c(C(=O)N2CCOCC2)cc2c(=O)n3ccccc3nc21 |
| > 41.9 µg/mL | Cc1cccnc1NC(=O)CCc1c[nH]c2ccccc12 |
| 2.4 µg/mL (≈ 7.91 µM) | O=C(Nc1nc2ccccc2[nH]1)c1ccc(OC(F)F)cc1 |
| 47.9 µg/mL (≈ 135 µM) | CCOc1ccc(C(CC(=O)O)NC(=O)C(CC)c2ccccc2)cc1 (configuration not stated) |
| 2.7 µg/mL | COc1ccc2[nH]c(C(=O)NCc3ccccc3)c(C)c2c1.Cl |
| 2.6 µg/mL (≈ 6.18 µM) | COc1cccc(OC)c1OCC(=O)Nc1ccc(S(=O)(=O)N2CCCC2)cc1 |
| > 40 µg/mL | Cc1ccccc1NC(=O)N1CCc2ccccc2C1 |
| 1.4 µg/mL (≈ 5.28 µM) | Cc1cc(C)cc(C(=O)Nc2nc3ccccc3[nH]2)c1 |
| > 49.4 µg/mL | Cc1ccc(CN2C(=O)c3ccccc3NC2c2ccccn2)cc1 (configuration not stated) |
| > 31.4 µg/mL | Cn1c(-c2ccccc2)nc2cnccc21 |
| 30.9 µg/mL (≈ 144 µM) | Cc1cc(Nc2ccccc2)cc(=O)n1C |
| 42.5 µg/mL (≈ 117 µM) | CC(=O)NS(=O)(=O)c1ccc(NC(=O)CSc2ccccc2)cc1 |
| > 47.5 µg/mL | O=C(CCNS(=O)(=O)c1ccc(Cl)cc1)N1CCCC1 |
| 30.3 µg/mL (≈ 93.6 µM) | Cc1c(Cl)cccc1NC(=O)CS(=O)(=O)c1ccccc1 |
| 7 µg/mL (≈ 20.8 µM) | COc1cccc(NC(=O)C2C(c3ccccc3)C2(Cl)Cl)c1 (configuration not stated) |
| > 50.6 µg/mL | Cn1c(CCC(=O)O)nc2cc(S(=O)(=O)N3CCCC3)ccc21 |

Second part, the compound before the results:

| Compound | solubility kinetic |
| --- | --- |
| Cl.Clc1ccc(CNCCCSc2ncccn2)cc1 | > 49.5 µg/mL |
| Cc1nc(Nc2ccc3c(c2)OCCO3)c2c(C)c(C)sc2n1 | 3.6 µg/mL (≈ 11 µM) |
| Cc1c(-c2nc(-c3cccnc3)no2)cccc1[N+](=O)[O-] | 2 µg/mL (≈ 7.09 µM) |
| CCC(C)[C@H](NC(=O)NCc1cccnc1)C(=O)OC (some centres not stated) | 41.5 µg/mL (≈ 149 µM) |
| CC(=O)c1cccc(NC(=O)C(C)OC(=O)C2CCC2)c1 (configuration not stated) | > 43.4 µg/mL |
| N#CC(C#N)=Cc1ccc(OCC(=O)N2CCOCC2)cc1 | > 44.6 µg/mL |
| Cn1c(=O)c2c(nc(SCC(=O)N3CCOCC3)n2C)n(C)c1=O | > 53 µg/mL |
| CCN1C(=O)CSC1=Nc1ccc(C(=O)O)cc1 | 39 µg/mL (≈ 148 µM) |
| COc1cc(C(=O)NC23CC4CC(CC(C4)C2)C3)cc(OC)c1OC | < 0.7 µg/mL |
| O=C(COC(=O)C1=COCCO1)Nc1ccc(F)c(F)c1 | 4.6 µg/mL (≈ 15.4 µM) |
| Cc1cc(C)nc(N2CCCC(C(=O)Nc3cccc(Cl)c3)C2)n1 (configuration not stated) | < 0.2 µg/mL |
| Cc1ccc(NC(=O)CN(C)C(=O)C2COc3ccccc3O2)cc1 (configuration not stated) | 47.4 µg/mL (≈ 139 µM) |
| O=C(Cc1ccccc1F)N1CCN(CC(=O)N2CCCC2)CC1 | > 50 µg/mL |
| CC(Oc1ccc(C#N)cc1)C(=O)NC1CCCC1 (configuration not stated) | > 38.7 µg/mL |
| Cc1ccc(O)c(Nc2nc(-c3ccccc3)nc3ccccc23)c1 | < 0.2 µg/mL |
| Cc1cc(C(=O)NCc2cc(C(=O)O)co2)co1 | > 37.4 µg/mL |
| N#C/C(=C\Nc1ccc(F)c(Cl)c1)C(=O)C1CC1 | 1.7 µg/mL (≈ 6.42 µM) |
| CCc1ccc2nc(N3CCN(C(=O)C(C)(C)C)CC3)sc2c1 | 2 µg/mL (≈ 6.03 µM) |
| CCCC(=O)OCCNc1cc(SCCC(=O)OC)c2nonc2c1[N+](=O)[O-] | 19.3 µg/mL (≈ 46.8 µM) |
| O=C(Cc1cccs1)NCCc1ccc(Cl)cc1 | 40.5 µg/mL (≈ 145 µM) |
| CN(C)S(=O)(=O)c1cccc(NC(=O)CCCC2CCCCC2)c1 | 8.2 µg/mL (≈ 23.3 µM) |
| Cc1nc(N2CCN(C)CC2)c2c3c(sc2n1)CCCC3 | 41.4 µg/mL (≈ 137 µM) |
| CNC(=O)c1sc(-c2cccs2)nc1C | > 35.7 µg/mL |
| O=C(NC12CC3CC(CC(C3)C1)C2)c1ccc([N+](=O)[O-])o1 | 34.9 µg/mL (≈ 120 µM) |

| Compound | solubility kinetic |
| --- | --- |
| CCOc1cc(N2CCOCC2)c(OCC)cc1NC(=O)c1cc(S(=O)(=O)N2CCOCC2)ccc1C | > 80 µg/mL |
| COC(=O)CC1C(=O)NCCN1C(=O)c1c(F)cccc1F (configuration not stated) | > 46.8 µg/mL |
| CCc1oc(C(=O)OC)cc1CSC(=N)N.Cl | 41.4 µg/mL |
| CCC(CC)C(=O)c1c[nH]c(C(=O)NCc2ccccc2OC)c1 | 0.8 µg/mL (≈ 2.44 µM) |
| COc1cccc(NC(=O)c2sc(Cl)nc2C)c1 | > 42.4 µg/mL |
| Cc1ccc(S(=O)(=O)N2CCC(N3CCC(C)CC3)CC2)cc1 | > 50.5 µg/mL |
| CN(C)/C=C/C(=O)c1ccc(F)cc1F | > 31.7 µg/mL |
| NS(=O)(=O)c1ccc(CCNCC(=O)NC2CC2)cc1 | 26.3 µg/mL (≈ 88.4 µM) |
| COc1ccccc1C1(CCNC(C)c2cccs2)CCOC(C(C)C)C1 (configuration not stated) | 54.4 µg/mL (≈ 140 µM) |
| O=C1CCCC2=C1C(c1ccc(O)c(O)c1)Nc1ccc3ccccc3c12 (configuration not stated) | 47.3 µg/mL (≈ 132 µM) |
| Cc1[nH]c2ccc(C(=O)NCCCN3CCOCC3)cc2c1C | > 47.3 µg/mL |
| O=C(COC(=O)c1ccc(O)cc1)Nc1ncc(Cl)cc1Cl | 31.5 µg/mL (≈ 92.3 µM) |
| O=C(NCc1ccccc1Cl)c1cc(C(=O)C2CC2)c[nH]1 | < 0.3 µg/mL |
| CCNc1nc(-c2ccc(OC(F)F)cc2)c(C)s1 | 20.9 µg/mL (≈ 73.5 µM) |
| CCN1CCN(C(=O)/C=C/c2ccc3c(c2)OCO3)CC1 | > 43.3 µg/mL |
| N#Cc1c(Nc2ccc(Cl)cc2)s[nH]c1=O | > 37.8 µg/mL |
| CCOC(=O)c1sc(=S)n(-c2ccc(C)cc2)c1N | 1.4 µg/mL (≈ 4.76 µM) |
| NC(=O)C(Cc1ccccc1)NC(=O)C12CC3CC(CC(C3)C1)C2 (configuration not stated) | 48.1 µg/mL (≈ 147 µM) |
| CCc1cc2c(=O)oc(-c3ccc(Br)cc3)nc2s1 | < 0.7 µg/mL |
| N#Cc1c(N)nc(Sc2ccc(Cl)cc2)c(C#N)c1-c1ccccc1Cl | < 0.2 µg/mL |
| Cc1cccn2c(=O)c(/C=C(\C#N)C(N)=O)c(N3CCCCCC3)nc12 | 5.1 µg/mL (≈ 14.5 µM) |
| O=C(NC(=S)Nc1cccnc1)c1cccs1 | 10.4 µg/mL (≈ 39.5 µM) |
| CC(OC(=O)[C@@H](NC(=O)c1ccco1)C(C)C)C(=O)Nc1ncc(Cl)cc1Cl (some centres not stated) | > 64.2 µg/mL |
| COc1ccc(CN2CCN(CC3CC3)CC2CCO)cc1C (configuration not stated) | > 47.8 µg/mL |

| Compound | solubility kinetic |
| --- | --- |
| C=CCSc1nc2sc3c(c2c(=O)[nH]1)CC(C)(CC)OC3 (configuration not stated) | 0.5 µg/mL (≈ 1.55 µM) |
| CC(C)C(NC(=O)c1ccc([N+](=O)[O-])cc1Cl)C(=O)N1CCCC1 (configuration not stated) | > 53.1 µg/mL |
| Cc1ccc(C)c(OCC(=O)NC2CCCCCC2)c1 | 3.8 µg/mL (≈ 13.8 µM) |
| COc1ccc(C2=CSC3=NCCN23)cc1[N+](=O)[O-] | 40.2 µg/mL (≈ 145 µM) |
| CCN1CCN(C(=O)/C=C/c2ccc(OC)cc2)CC1 | > 41.2 µg/mL |
| CCOc1ccc(NC(=O)CN(C)C(=O)C2COc3ccccc3O2)cc1OCC (configuration not stated) | > 62.2 µg/mL |
| Cc1cc(=O)[nH]c(SCc2ccc(Cl)cc2)n1 | 13.2 µg/mL (≈ 49.5 µM) |
| Cc1ccc(OCC(=O)NCCNC(=O)c2cnccn2)cc1C | 46.3 µg/mL (≈ 141 µM) |
| Nc1cc(N)nc(SCc2cccc(F)c2)n1 | 24.9 µg/mL (≈ 99.5 µM) |
| Cc1ccc(C(=O)N2CCC(C(=O)NC3CCCCCC3)CC2)cc1 | 48.1 µg/mL (≈ 140 µM) |
| CC1(C2CC2)NC(=O)N(CC(=O)N2CCN(c3cccc(C(F)(F)F)c3)CC2)C1=O (configuration not stated) | 21.6 µg/mL (≈ 50.9 µM) |
| CSc1ncccc1C(=O)Nc1ccc(OC(F)(F)F)cc1 | 3.8 µg/mL (≈ 11.6 µM) |
| COc1ccc(Nc2ncnc3c2c(C)c(C)n3CCO)cc1 | > 46.9 µg/mL |
| O=C(Nc1nc2ccc(F)cc2s1)c1cccs1 | 1.1 µg/mL (≈ 3.95 µM) |
| CC(=O)c1cccc(NC(=O)C2CC(=O)N(C3CCCC3)C2)c1 (configuration not stated) | > 47.2 µg/mL |
| NS(=O)(=O)c1ccc(NNC(=O)c2ccc(Br)o2)c([N+](=O)[O-])c1 | > 60.8 µg/mL |
| Cc1ccc(N2C(=O)C3C4C=CC(CC4)C3C2=O)cc1Cl (configuration not stated) | 1.4 µg/mL (≈ 4.64 µM) |
| CCCC(C(=O)OCCN(CC)CC)(c1ccccc1)c1ccccc1.Cl | 47.4 µg/mL |
| CCOc1ccc(N2C(=O)CSC2=S)cc1 | < 0.5 µg/mL |
| CCCCOC(=O)c1ccc(NC(=O)C(=O)NCCN(CC)CC)cc1 | 44.3 µg/mL (≈ 122 µM) |
| COC(=O)C1=C(C)NC(C)=C(C(=O)OC)C1c1ccc(C)o1 | 13 µg/mL (≈ 42.6 µM) |
| O=C(COC(=O)c1ccc[nH]c1=O)NCCC1=CCCCC1 | 41.1 µg/mL (≈ 135 µM) |
| CCc1ccc(-c2csc3nc[nH]c(=O)c23)cc1 | 12 µg/mL (≈ 46.8 µM) |
| CCc1ccc(Nc2ccc(C(=O)O)cc2[N+](=O)[O-])cc1 | > 42.9 µg/mL |
